Experimental findings from patent US12103926B2, “Compounds for treating huntington's disease” (PTC THERAPEUTICS, INC., priority 2018, dated 2024) are described below.

This assay relates to Endogenous Huntingtin Protein. Kind of assay: Endogenous Huntingtin Protein Assay (ELISA-based MSD electrochemiluminescence assay). Particulars: MW1 (expanded polyglutamine) or MAB2166 capture antibody; lysates. The format is cell-based. The protocol: Compounds of Formula (I) were tested using the Meso Scale Discovery (MSD) Assay provided in International Application No. PCT/US2016/066042, filed on Dec. 11, 2016 and claiming priority to United States Provisional Application U.S. 62/265,652 filed on Dec. 10, 2015, the entire contents of which are incorporated herein by reference.
The Endogenous Huntingtin Protein assay used in Example 1 was developed using the ELISA-based MSD electrochemiluminescence assay platform.
Endogenous Huntingtin Protein Assay
Meso Scale Discovery (MSD) 96-well or 384-well plates were coated overnight at 4° C. with MW1 (expanded polyglutamine) or MAB2166 monoclonal antibody (for capture) at a concentration of 1 μg/mL in PBS (30 μL per well). Plates were then washed three times with 300 μL wash buffer (0.05% Tween-20 in PBS) and blocked (100 μL blocking buffer; 5% BSA in PBS) for 4-5 hours at room temperature with rotational shaking and then washed three times with wash buffer.
Samples (25 μL) were transferred to the antibody-coated MSD plate and incubated overnight at 4° C. After removal of the lysates, the plate was washed three times with wash buffer, and 25 μL of #5656S (Cell signaling; rabbit monoclonal) secondary antibody (diluted to 0.25 μg/mL in 0.05% Tween-20 in blocking buffer) was added to each well and incubated with shaking for 1 Hour at room temperature. Following incubation with the secondary antibody, the wells were rinsed with wash buffer after which 25 μL of goat anti-rabbit SULFO TAG secondary detection antibody (required aspect of the MSD system) (diluted to 0.25 μg/mL in 0.05% Tween-20 in blocking buffer) was added to each well and incubated with shaking for 1 hour at room temperature. After rinsing three times with wash buffer, 150 μL of read buffer T with surfactant (MSD) were added to each empty well, and the plate was imaged on a SI 6000 imager (MSD) according to manufacturers' instructions provided for 96- or 384-well plates.
(In general: An ELISA detects its analyte on a solid surface through an enzyme-linked reagent.)
By IC50 is commonly meant the midpoint of a concentration-inhibition curve. As for `CN(c1cnc(-c2cc(Cl)c(-c3cn[nH]c3)cc2Cl)cn1)C1CC(C)(C)NC(C)(C)C1` [Cpd 4, 5-[2,5-dichloro-4-(1H-pyrazol-4-yl)phenyl]-N-methyl-N-(2,2,6,6-tetramethylpiperidin-4-yl)pyrazin-2-amine], the IC50 is 1000 to 3000 nM. As for `CC(C)(C)NC1CCN(c2cnc(-c3ccc(-c4c[nH]nc4F)cc3O)cn2)C1` (stereo not drawn) [Cpd 65, 2-{5-[3-(tert-butylamino)pyrrolidin-1-yl]pyrazin-2-yl}-5-(3-fluoro-1H-pyrazol-4-yl)phenol], the figure is below 100 nM. Under `CN(c1cnc(-c2ccc(-c3cn[nH]c3)cc2O)cn1)C1CC(C)(C)NC(C)(C)C1` [Cpd 26, 2-{5-[methyl(2,2,6,6-tetramethylpiperidin-4-yl)amino]pyrazin-2-yl}-5-(1H-pyrazol-4-yl)phenol] stands below 100 nM. As for `CN(c1cnc(-c2ccc(-n3nccn3)cc2O)cn1)C1CC(C)(C)NC(C)(C)C1` [Cpd 61, 2-{5-[methyl(2,2,6,6-tetramethylpiperidin-4-yl)amino]pyrazin-2-yl}-5-(2H-1,2,3-triazol-2-yl)phenol], the figure is 100 to 500 nM. Regarding `CN(c1cnc(-c2ccc(-n3ccnc3)cc2O)cn1)C1CC(C)(C)NC(C)(C)C1` [Cpd 5, 5-(1H-imidazol-1-yl)-2-{5-[methyl(2,2,6,6-tetramethylpiperidin-4-yl)amino]pyrazin-2-yl}phenol], the IC50 was 500 to 1000 nM.

With `CN(c1cnc(-c2cc(F)c(-c3cn[nH]c3)cc2F)cn1)C1CC(C)(C)NC(C)(C)C1` [Cpd 15, 5-[2,5-difluoro-4-(1H-pyrazol-4-yl)phenyl]-N-methyl-N-(2,2,6,6-tetramethylpiperidin-4-yl)pyrazin-2-amine], the IC50 is below 100 nM. In the case of `CC1(C)CC(Nc2cnc(-c3ccc(-c4ccccn4)cc3O)cn2)CC(C)(C)N1` [Cpd 48, 5-(pyridin-2-yl)-2-{5-[(2,2,6,6-tetramethylpiperidin-4-yl)amino]pyrazin-2-yl}phenol], the IC50 is 3000 to 9000 nM. Take `CC1(C)CC(Nc2cnc(-c3ccc(-c4ncccn4)cc3O)cn2)CC(C)(C)N1` [Cpd 47, 5-(pyrimidin-2-yl)-2-{5-[(2,2,6,6-tetramethylpiperidin-4-yl)amino]pyrazin-2-yl} phenol]: the IC50 was 1000 to 3000 nM. As for `Oc1cc(-c2cn[nH]c2)ccc1-c1cnc(NC2CCNCC2)cn1` [Cpd 8, 2-{5-[(piperidin-4-yl)amino]pyrazin-2-yl}-5-(1H-pyrazol-4-yl)phenol], the figure is 1000 to 3000 nM; as for `CC(C)(C)NC1CCN(c2cnc(-c3cc(F)c(-c4cn[nH]c4)cc3F)cn2)C1` (stereo not drawn) [Cpd 64, N-tert-butyl-1-{5-[2,5-difluoro-4-(1H-pyrazol-4-yl)phenyl]pyrazin-2-yl}pyrrolidin-3-amine], below 100 nM; as for `CN(c1cnc(-c2cc(F)c(-c3cn[nH]c3)cc2O)cn1)C1CC(C)(C)NC(C)(C)C1` [Cpd 22, 4-fluoro-2-{5-[methyl(2,2,6,6-tetramethylpiperidin-4-yl)amino]pyrazin-2-yl}-5-(1H-pyrazol-4-yl)phenol], below 100 nM. `CN(c1cnc(-c2cc(Cl)c(-c3cn[nH]c3)cc2F)cn1)C1CC(C)(C)NC(C)(C)C1` [Cpd 23, 5-[5-chloro-2-fluoro-4-(1H-pyrazol-4-yl)phenyl]-N-methyl-N-(2,2,6,6-tetramethylpiperidin-4-yl)pyrazin-2-amine] returned an IC50 of 100 to 500 nM. As for `CC1(C)CC(Nc2cnc(-c3ccc(-c4cc[nH]n4)cc3O)cn2)CC(C)(C)N1` [Cpd 58, 5-(1H-pyrazol-3-yl)-2-{5-[(2,2,6,6-tetramethylpiperidin-4-yl)amino]pyrazin-2-yl}phenol], the figure is 100 to 500 nM; as for `CC1(C)CC(Nc2cnc(-c3ccc(-c4cccnc4)cc3O)cn2)CC(C)(C)N1` [Cpd 45, 5-(pyridin-3-yl)-2-{5-[(2,2,6,6-tetramethylpiperidin-4-yl)amino]pyrazin-2-yl}phenol], 500 to 1000 nM.

In turn, `CN(c1cnc(-c2ccc(-c3ccn(C)c(=O)c3)cc2O)cn1)C1CC(C)(C)NC(C)(C)C1` [Cpd 18, 4-(3-hydroxy-4-{5-[methyl(2,2,6,6-tetramethylpiperidin-4-yl)amino]pyrazin-2-yl}phenyl)-1-methylpyridin-2(1H)-one] gave a half-inhibitory concentration (IC50) of 1000 to 3000 nM.

For `COc1cc(-c2ccc(-c3cnc(NC4CC(C)(C)NC(C)(C)C4)cn3)c(O)c2)ncn1` [Cpd 49, 5-(6-methoxypyrimidin-4-yl)-2-{5-[(2,2,6,6-tetramethylpiperidin-4-yl)amino]pyrazin-2-yl}phenol], the half-maximal inhibitory concentration (IC50) was below 100 nM. Under `Cn1cc(-c2ccc(-c3cnc(N4CCC(NC(C)(C)C)C4)cn3)c(O)c2)cn1` (stereo not drawn) [Cpd 62, 2-{5-[3-(tert-butylamino)pyrrolidin-1-yl]pyrazin-2-yl}-5-(1-methyl-1H-pyrazol-4-yl)phenol] stands below 100 nM; under `CC1(C)CC(Nc2cnc(-c3ccc(-c4cn5ccnc5cn4)cc3O)cn2)CC(C)(C)N1` [Cpd 53, 5-(imidazo[1,2-a]pyrazin-6-yl)-2-{5-[(2,2,6,6-tetramethylpiperidin-4-yl)amino]pyrazin-2-yl}phenol], 100 to 500 nM; under `CC1(C)CC(Nc2cnc(-c3ccc(-n4nccn4)cc3O)cn2)CC(C)(C)N1` [Cpd 51, 2-{5-[(2,2,6,6-tetramethylpiperidin-4-yl)amino]pyrazin-2-yl}-5-(2H-1,2,3-triazol-2-yl)phenol], 500 to 1000 nM. For `Cc1cn(-c2ccc(-c3cnc(N(C)C4CC(C)(C)NC(C)(C)C4)cn3)c(F)c2F)cn1` [Cpd 41, 5-[2,3-difluoro-4-(4-methyl-1H-imidazol-1-yl)phenyl]-N-methyl-N-(2,2,6,6-tetramethylpiperidin-4-yl)pyrazin-2-amine], the IC50 lay within 500 to 1000 nM. Under `CC1(C)CC(Nc2cnc(-c3ccc(-c4cn[nH]c4F)cc3O)cn2)CC(C)(C)N1` [Cpd 57, 5-(5-fluoro-1H-pyrazol-4-yl)-2-{5-[(2,2,6,6-tetramethylpiperidin-4-yl)amino]pyrazin-2-yl}phenol] stands below 100 nM.
